Experiments:
4T1 cells [1] = experiment: Cytotoxicity on 4T1 cells, LDH; assay type: cell-based, murine; details: Mus musculus
Procedure: (§1) The cellular viability tests were carried out on murine mammary tumor 4T1 cells characterized as negative triples (HER2−, ER−, PR−).
(§2) For this experiment, a cell culture medium was prepared. The culture medium consists of Dulbecco's Modified Eagle Medium (DMEM, marketed by Westburg under the reference LO BE12-604F), comprising 4.5 g/L glucose with L-glutamine, to which 10% of fetal calf serum (FCS) and 50 U/mL of penicillin/streptomycin are added. The 4T1 cells are introduced into this culture medium.
(§3) 96-well plates were seeded with 2000 4T1 cells per well. After 72 hours (h) of culture in normal conditions, i.e. in an incubator at a temperature of 37° C. at 5% CO2, the 4T1 cells are treated for 48 h with DX101, DX107, DX113, DX117, DX119, DX121 or DX131 at 100 nM, 1 μM, 2.5 μM and 10 μM. A control condition (CTL) is also carried out in parallel using the protocol described above but without treatment with the molecules DX101, DX107, DX113, DX117, DX119, DX121, DX131 or DX133.
(§4) For the second method, the percentage viability is determined using assay of the activity of the enzyme LDH (lactate dehydrogenase) in the cellular supernatants using the kit non radioactive cytotoxicity assay kit (Promega). LDH is an enzyme released in the supernatant of dead cells. The higher the LDH activity in the supernatant, the greater is the cell death. In this enzyme test, the LDH released converts a violet tetrazolium salt to formazan, of red color, absorbing at 490 nm. The intensity of the red color is proportional to the number of dead cells. After 48 h of treatment, the supernatants are transferred to a new 96-well plate and are incubated for 30 minutes in the presence of the substrate mix at room temperature. The reaction is stopped using the stop buffer and the absorbance is determined at 490 nm. The percentage cell death is determined here using a control 100% of maximum activity of LDH (carried out with untreated cells incubated in the presence of the lysis solution for 45 minutes at 37° C. just before adding the substrate mix), and the cellular viability in each well is then deduced from this percentage. IC50 is then determined as explained in the preceding paragraph.

[2] = system: BT-474 human mammary tumor cells; experiment: Cytotoxicity on BT-474 cells, MTT; assay type: cell-based; details: for Mean LogIC50 (±SEM): log of IC50 in μM; for IC50: Homo sapiens
Procedure: (§5) Cellular viability is measured by three different methods. For the first method, MTT labeling is carried out at 48 hours. This test is based on the use of the tetrazolium salt MTT (3-(4,5-dimethylthiazol-2-yl)-2,5-diphenyltetrazolium bromide). The tetrazolium is reduced by mitochondrial succinate dehydrogenase of active living cells, to formazan, a precipitate of a violet color. The quantity of precipitate formed is proportional to the quantity of living cells but also to the metabolic activity of each cell. […] After 48 hours, the medium is aspirated, and the cells are incubated with MTT (0.5 mg/ml in culture medium) for about 3 hours. The MTT solution is aspirated and the violet crystals are dissolved in dimethylsulfoxide (DMSO). The OD (optical density) is measured at 550 nm. The percentage viability is then determined in each well relative to the CTL and the IC50 (concentration for which there are still 50% of living cells) is determined for each molecule with Prism software using the nonlinear regression straight line (log(inhibitor) vs. Response).
(§6) The cellular viability tests were also carried out on BT-474 human mammary tumor cells (characterized as being positive triples HER2+, ER+, PR+). The BT-474 cells are in a cell culture medium identical to the preceding example and are seeded in 24-well plates at 70 000 cells per well, for determination of cellular viability using trypan blue, or in 96-well plates at 13 000 cells per well for determination of cellular viability using the MTT or LDH assay. After 96 hours (h) of culture in normal conditions, i.e. in an incubator at a temperature of 37° C. at 5% CO2, the BT-474 cells are treated for 48 h with DX101, DX107, and DX113 at 100 nM, 1 μM, 2.5 μM and 10 μM. A control is also carried out using the protocol described above but without treatment with the molecules DX101, DX107, DX113, DX117, DX119, DX121 or DX131.
(§7) After trypsin digestion for 10 minutes at 37° C., cell survival was quantified, also by a trypan blue assay with automatic counting with the Biorad TC20 equipment (TC20™ Automated Cell Counter). The trypan blue assay is based on the cell membrane integrity, which is broken in the dead cells. Trypan blue stains the dead cells blue. The Biorad TC20 cell counter counts the proportion of blue cells and non-blue cells, relative to the cell percentages. The percentage viability is then determined in each well relative to the untreated cells and the IC50 is determined as explained in the preceding example. The percentage viability of the BT-474 cells was determined using the MTT and LDH assay, carried out as described in the preceding example.

[3] = Pharmacokinetic study of DX121 (LC/MS in plasma); assay type: in vivo; details: rat, oral 50 mg/kg, administered compound assayed
From the text: The following study is a determination by LC/MS in plasma of the various molecules over 3 days (11 measurement points at the end). The graphs are always presented in comparison with DX101, which is the reference. […]

4T1 cells [4] = experiment: Cytotoxicity on 4T1 cells, CellTox Green Cytotoxicity Assay; assay type: cell-based, murine; details: Mus musculus
Procedure: as §1, §2, §3
For the third method, the percentage viability is determined using the kit CellTox Green Cytotoxicity Assay (Promega). This assay measures cell death via a change in membrane integrity. […] As a result, the higher the fluorescence in the wells, the greater is the cell death. After 48 h of treatment, the cells are incubated for a minimum of 15 minutes in the presence of the Celltox green reagent at room temperature and the fluorescence is read at […]. The percentage cell death is determined using the control 100% of cell death (carried out for untreated cells incubated in the presence of the lysis solution for 30 minutes at 37° C. before adding the Celltox green reagent), and the cellular viability in each well is then deduced from this percentage. IC50 is then determined as explained above.

4T1 cells [5] = experiment: Cytotoxicity on 4T1 cells, MTT; assay type: cell-based, murine; details: Mus musculus
Procedure: as §1, §2, §3, §5

[6] = system: BT-474 human mammary tumor cells; experiment: Cytotoxicity on BT-474 cells, LDH; assay type: cell-based; details: for Mean LogIC50 (±SEM): log of IC50 in μM; for IC50: Homo sapiens
Procedure: as §4, §6, §7

[7] = target: T1, cholesterol epoxide hydrolase (ChEH) (Homo sapiens, UniProt Q15125); experiment: Activity of cholesterol epoxide hydrolase (ChEH) in MCF-7 cells, [14C]5,6α-EC metabolization by TLC; assay type: cell-based; details: MCF-7, 1 μM, 24 h, [14C]5,6α-EC 0.6 μM
T1 construct: endogenous in cells; host or cells: MCF-7
From the text: The compounds 5,6α-epoxycholesterol (5,6α-EC) and 5,6β-epoxycholesterol (5,6β-EC) are oxysterols involved in the anticancer pharmacology of tamoxifen, a widely used antitumor drug. They are both metabolized in cholestan-3β,5α,6β-triol (CT) by the enzyme cholesterol-5,6-epoxide hydrolase (ChEH), and CT is metabolized by the enzyme HSD11B2 (11β-hydroxysteroid dehydrogenase 2) to 6-oxo-cholestan-3β,5α-diol (OCDO), an oncosterone tumor promoter.
MCF-7 cells are in a cell culture medium identical to example 20 and are seeded in 6-well plates at 150000 cells per well with 3 wells per treatment condition. 24 h after seeding, the MCF-7 cells are treated with [^14C]5,6α-EC (stock solution 1000×: 0.6 mM; 20 μCi/μmol; final concentration 0.6 μM) alone or in combination with tamoxifen (tam). Tamoxifen is used as positive control of the study compounds. The treatment with the compound according to the invention is carried out at a concentration of 1 μM.
After 24 hours of treatment, the media are collected and lipid extracts are prepared from the cell pellets by extraction with 100 μL of chloroform, 400 μL of methanol and 300 μL of water. The lipid extracts are analyzed by thin-layer chromatography (TLC) using ethyl acetate (EtOAc) as eluent. The analysis is carried out using a plate reader and then by autoradiography.

[8] = 4T1, LDH, 48 h, log of IC50 in μM, read-out: Mean LogIC50 (±SEM) (converted)
[9] = 4T1, Green Cytotoxicity Assay, 48 h, log of IC50 in μM, read-out: Mean LogIC50 (±SEM) (converted)
[10] = 4T1, Green Cytotoxicity Assay, 48 h, read-out: IC50
[11] = 4T1, MTT, 48 h, log of IC50 in μM, read-out: Mean LogIC50 (±SEM) (converted)
[12] = 4T1, 48 h, read-out: Mean LogIC50 (±SEM) (converted)

T1 sequence (Q15125 whole entry): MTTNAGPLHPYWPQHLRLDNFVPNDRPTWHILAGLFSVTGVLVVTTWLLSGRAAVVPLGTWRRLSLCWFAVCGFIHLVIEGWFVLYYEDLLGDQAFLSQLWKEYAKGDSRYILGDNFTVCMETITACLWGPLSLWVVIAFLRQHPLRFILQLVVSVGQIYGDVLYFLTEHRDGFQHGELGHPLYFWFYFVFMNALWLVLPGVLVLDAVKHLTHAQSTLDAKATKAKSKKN

Structure (SMILES)	IC50 (4T1 cells [1]; [8])	IC50 (4T1 cells [1]; 4T1, LDH, 48 h, read-out: IC50)	Mean LogIC50 (±SEM) ([2]; BT-474, MTT, 48 h)	IC50 (4T1 cells [4]; [9])	IC50 (4T1 cells [4]; [10])	IC50 (4T1 cells [5]; [11])	IC50 (4T1 cells [5]; 4T1, MTT, 48 h, read-out: IC50)	Mean LogIC50 (±SEM) ([6]; BT-474, LDH, 48 h)	other results
CCOC(=O)O[C@H]1CC[C@]2(C)[C@H]3CC[C@]4(C)[C@@H]([C@H](C)CCCC(C)C)CC[C@H]4[C@@H]3C[C@@H](NCCc3c[nH]cn3)[C@@]2(O)C1 [DX121, 5α-hydroxy-6β-[2-(1H-imidazol-4-yl)ethylamino]cholestan-3β-yl ethyl carbonate]	4.68 µM	4.69 µM	1.05 ± 0.17	6.61 µM	6.59 µM	11 µM	10.8 µM	1.47 ± 0.40	IC50 ([2]; BT-474, MTT, 48 h, read-out: IC50): 11.2 µM; Concentration max [3]: 96.33 nM; Area under curve ([3]; 0-72 h): 1000; IC50 ([6]; BT-474, LDH, 48 h, read-out: IC50): 11.8 µM
CCN(CC)C(=O)O[C@H]1CC[C@]2(C)C3CC[C@@]4(C)C(CC[C@@H]4C(C)CCCC(C)C)C3C[C@@H](NCCc3c[nH]cn3)[C@@]2(O)C1 (stereo partly drawn) [DX131, 5α-hydroxy-6β-[2-(1H-imidazol-4-yl)ethylamino]cholestan-3β-yl-diethyl carbamate]			1.08 ± 0.08					1.45 ± 0.08	IC50 (4T1 cells [1]; 4T1, 48 h): 6.76 µM; IC50 (4T1 cells [1]; [12]): 6.76 µM; IC50 ([2]; BT-474, 48 h): 12 µM; IC50 (4T1 cells [4]; 4T1, 48 h): 1.81 µM; IC50 (4T1 cells [4]; [12]): 1.7 µM; IC50 (4T1 cells [5]; 4T1, 48 h): 25.7 µM; IC50 (4T1 cells [5]; [12]): 25.7 µM; IC50 ([6]; BT-474, 48 h): 28.2 µM
CCC(=O)NC(Cc1ccc(O)cc1)C(=O)O[C@H]1CC[C@]2(C)C3CC[C@@]4(C)C(CC[C@@H]4C(C)CCCC(C)C)C3C[C@@H](NCCc3c[nH]cn3)[C@@]2(O)C1 (stereo partly drawn) [DX133, 5α-hydroxy-6β-[2-(1H-imidazol-4-yl)ethylamino]cholestan-3β-yl propionyltyrosine]	4.17 µM	4.17 µM		3.55 µM	3.56 µM	12.3 µM	12.2 µM		
CC/C(=C(\c1ccccc1)c1ccc(OCCN(C)C)cc1)c1ccccc1 [tamoxifen]									inhibition of ChEH activity [7]: total inhibition
